This is an account of results in US12103952B2, “Methods for expressing proteins in axons” (Cornell University, priority 2010, dated 2024).

The subject of this experiment is E15 dissociated DRG neurons. Nature of the experiment: NGF-mediated retrograde survival in compartmented (Campenot) chambers, TUNEL assay. It is filed as cell-based, rat. On the procedure: FIGS. 2A-E are results showing that local protein synthesis in axons is required for NGF-dependent survival. (A) Phospho-4E-BP1 levels increase in growth cones in response to NGF treatment. DRG neurons were incubated with NGF-replete or NGF-free media; phospho-4E-BP1 levels in axons were measured by immunofluorescence. Scale bar, 50 μm. (B) Quantification of total and phospho-4EBP1 in (A) p=0.012. Numbers on bars represent n axons per condition. (C) Schematic diagram of compartmented (Campenot) chambers. E15 dissociated DRG neurons are cultured in the cell body compartment and axons grow under a thinly applied silicone grease layer that seals the chamber with the Permanox® plastic culture slide. (D) Application of protein synthesis inhibitors to axons blocks NGF-mediated retrograde survival. Dissociated DRG neurons were grown in compartmentalized chambers, and vehicle or NGF was added to the axon compartment. 1 μM cycloheximide (CHX) or 40 μM anisomycin (Aniso) were added to the axon compartment concurrently with NGF media. Cell body compartments were kept NGF-free during the course of the experiment. Cells crossing the divider were retrogradely labeled with WGA-Alexa555 and only WGA-positive cell bodies were counted in the data set. Survival was assessed by TUNEL assay. Examples of non-apoptotic and apoptotic are indicated with closed and open arrows, respectively (Blue=DAPI, Green=TUNEL). Scale bar, 20 μm. (E) Quantification of results from (D). *p<0.001. Numbers on bars represent n cells per condition.
Campenot chambers were modified for FISH and Immunofluorescence analysis as follows: Teflon dividers were applied to poly-D-lysine, laminin and collagen (1 mg/ml)-coated Lab-Tek chambers (NUNC). The low autofluorescence of the Permanox® plastic in these chambers allows us to perform fluorescence analyses on these cultures much more readily than is possible using traditional cell culture plasticware. E15 dissociated DRG neurons were plated in the cell body compartment in media containing 100 ng/ml NGF and 20 μM 5′-fluorodeoxyuridine to inhibit glial growth. Media was changed every 2 DIV and NGF concentration in the cell body compartment was halved at each media change. At DIV 5, when axons had crossed the divide into the axonal compartment, NGF was withdrawn from the cell body compartment and experimental media containing NGF (0 ng/ml or 30 ng/ml) and/or drug treatments/siRNA transfection reagents was applied to the axon compartment for a further 2 DIV. All media were completely replaced every subsequent 12 hours to ensure purity of the conditions in the respective compartments. […]

The mark [1] stands for this setting: axonal application together with NGF, 1 μM cycloheximide or 40 μM anisomycin, compared to NGF alone.

Take `C[C@@H]1C[C@@H]([C@H](O)CC2CC(=O)NC(=O)C2)C(=O)[C@@H](C)C1` [cycloheximide]: under setting [1], the neuronal survival entry was “significant reduction in survival”. NGF: nerve growth factor: the DRG survival entry (5 DIV compartmented cultures, NGF applied to either axons or cell bodies individually) is “capable of supporting DRG survival”. The neuronal survival entry (NGF applied exclusively to the axonal compartment, cell body compartment NGF-free, 48 hour, compared to vehicle-treated axons) is given as “significant increase in neuronal survival”.

As to `COc1ccc(C[C@H]2NC[C@H](O)[C@H]2OC(C)=O)cc1` [anisomycin], under setting [1], the neuronal survival result is recorded as “significant reduction in survival”.
